Target: T1, ERK5 (Homo sapiens, UniProt Q13164)
T1 construct: made in house
Assay: ERK5 IMAP assay (fluorescence polarisation)
Format: biochemical
Conditions: average (e.g. geometric mean) where more than one data point; read-out: ERK5 IC50
Experimental: The assay buffer was prepared using 0.01% Tween®-20 5× stock, supplied as part of IMAP™ FP Progressive Binding System Kit (Molecular Devices R7436) and diluted to 1× using miliQ H2O. 1 μL of a 1M DTT stock was added for every 1 mL of 1× assay buffer to give a final concentration of 1 mM DTT.
ERK5 was expressed and purified at CRT-DL by Leon Pang and Sue Young. Aliquots were stored at −80° C. The ERK5 working solution was used at a […] final dilution in assay buffer. […] For 1 plate, […] of ERK5 stock was added to 2262 μL of 1× assay buffer.
To prepare the IMAP™ binding solution for one plate 20.5 μL of IMAP™ binding reagent stock, 1476 μL of 1× binding buffer A (60%), and 984 μL of binding buffer B (40%) (IMAP™ FP Progressive screening express kit (Molecular Devices R8127) was added to 9819.5 μL of milliQ H2O.
1 μL of inhibitor (in 60:40 H2O/DMSO) or 60:40 H2O/DMSO (for controls and blanks) were dry-spotted into the relevant wells of a 384-well assay plate using the MATRIX PlateMate® Plus. 5 μL of ERK5 working solution was added to test and control wells, and 5 μL of 1× assay buffer added to blanks; 4 μL of ATP/substrate working solution was added to all wells using a Matrix multichannel pipette. The plate was sealed using DMSO resistant clear seal and incubated for 2 h at 37° C. 1 μL of the kinase reaction mixture from the first plate was dry spotted into a second 384-well assay plate using the MATRIX PlateMate® Plus. 9 μL of assay buffer was added, followed by 30 μL of IMAP™ binding solution using a multichannel pipette. The plate was incubated at RT in darkness for 2 h. The assay plate was then read on an Analyst HT plate reader (Molecular Devices) using the settings described below: […]

T1 sequence (Q13164 whole entry): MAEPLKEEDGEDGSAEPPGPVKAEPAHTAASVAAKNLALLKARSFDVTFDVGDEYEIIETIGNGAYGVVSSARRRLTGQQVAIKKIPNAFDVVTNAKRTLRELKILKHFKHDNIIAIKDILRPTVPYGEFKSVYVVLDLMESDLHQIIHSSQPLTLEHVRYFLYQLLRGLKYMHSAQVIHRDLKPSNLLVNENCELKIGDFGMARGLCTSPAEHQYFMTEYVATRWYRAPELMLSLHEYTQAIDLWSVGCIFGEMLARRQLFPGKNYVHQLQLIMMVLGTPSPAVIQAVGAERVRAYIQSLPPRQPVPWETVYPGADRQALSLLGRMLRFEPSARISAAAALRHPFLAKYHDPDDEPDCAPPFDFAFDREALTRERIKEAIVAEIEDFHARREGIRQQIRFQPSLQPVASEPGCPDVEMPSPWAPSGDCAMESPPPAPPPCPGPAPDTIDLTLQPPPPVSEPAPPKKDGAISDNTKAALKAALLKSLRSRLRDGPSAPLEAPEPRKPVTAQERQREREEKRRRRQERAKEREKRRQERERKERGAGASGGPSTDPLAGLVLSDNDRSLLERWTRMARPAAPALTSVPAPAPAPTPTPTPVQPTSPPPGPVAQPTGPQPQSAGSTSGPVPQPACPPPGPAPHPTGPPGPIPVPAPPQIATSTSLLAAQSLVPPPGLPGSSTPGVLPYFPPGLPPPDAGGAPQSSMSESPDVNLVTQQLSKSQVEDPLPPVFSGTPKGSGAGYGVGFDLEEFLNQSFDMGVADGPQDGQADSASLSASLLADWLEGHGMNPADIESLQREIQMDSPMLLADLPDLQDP

| SMILES | IC50 [µM] |
| --- | --- |
| C=Cc1ccc(F)c(C(=O)c2c[nH]c(C(=O)NC3CCN(C)CC3)c2)c1F [Ex 167] | 0.643 |
| CC(C)N1CCC(NC(=O)c2cc(C(=O)c3c(F)cccc3Cl)c[nH]2)CC1 [Example 1, 4-(2-Chloro-6-fluorobenzoyl)-N-(1-isopropylpiperidin-4-yl)-1H-pyrrole-2-carboxamide] | 0.657 |
| CC(C)(C)OC(=O)N1CCC(NC(=O)c2cc(C(=O)c3c(Cl)ccc(Cl)c3F)c[nH]2)CC1 [Example 2, tert-Butyl 4-(4-(3,6-dichloro-2-fluorobenzoyl)-1H-pyrrole-2-carboxamido)piperidine-1-carboxylate] | 1.35 |
| CCN1CCC(NC(=O)c2cc(C(=O)c3c(F)cccc3Cl)c[nH]2)CC1 [Example 5, 4-(2-Chloro-6-fluorobenzoyl)-N-(1-ethylpiperidin-4-yl)-1H-pyrrole-2-carboxamide] | 0.437 |
| CC(=O)N1CCC(NC(=O)c2cc(C(=O)c3c(F)cccc3Cl)c[nH]2)CC1 [Example 6, N-(1-Acetylpiperidin-4-yl)-4-(2-chloro-6-fluorobenzoyl)-1H-pyrrole-2-carboxamide] | 0.459 |
| CS(=O)(=O)N1CCC(NC(=O)c2cc(C(=O)c3c(F)cccc3Cl)c[nH]2)CC1 [Example 8, 4-(2-Chloro-6-fluorobenzoyl)-N-(1-(methylsulfonyl)piperidin-4-yl)-1H-pyrrole-2-carboxamide] | 0.298 |
| O=C(NC1CCN(c2ncccn2)CC1)c1cc(C(=O)c2c(F)cccc2Cl)c[nH]1 [Example 10, 4-(2-Chloro-6-fluorobenzoyl)-N-(1-(pyrimidin-2-yl)piperidin-4-yl)-1H-pyrrole-2-carboxamide] | 0.264 |
| O=C(NC1CCN(C(=O)C(F)(F)F)CC1)c1cc(C(=O)c2c(Cl)ccc(Cl)c2F)c[nH]1 [Example 11, 4-(3,6-Dichloro-2-fluorobenzoyl)-N-(1-(2,2,2-trifluoroacetyl)piperidin-4-yl)-1H-pyrrole-2-carboxamide] | 0.521 |
| CNc1ncc(NC(=O)c2cc(C(=O)c3c(F)cccc3Cl)c[nH]2)cn1 [Example 12, 4-(2-Chloro-6-fluorobenzoyl)-N-(2-(methylamino)pyrimidin-5-yl)-1H-pyrrole-2-carboxamide] | 1.75 |
| O=C(Nc1cnc(N2CCCC2)nc1)c1cc(C(=O)c2c(F)cccc2Cl)c[nH]1 [Example 14, 4-(2-Chloro-6-fluorobenzoyl)-N-(2-(pyrrolidin-1-yl)pyrimidin-5-yl)-1H-pyrrole-2-carboxamide] | 4.11 |
| O=C(Nc1cnc(N2CCN(C3CC3)CC2)nc1)c1cc(C(=O)c2c(Cl)ccc(Cl)c2F)c[nH]1 [Example 17, N-(2-(4-cyclopropylpiperazin-1-yl)pyrimidin-5-yl)-4-(3,6-dichloro-2-fluorobenzoyl)-1H-pyrrole-2-carboxamide] | 1.75 |
| O=C(Nc1cnc(N2CCOCC2)nc1)c1cc(C(=O)c2c(Cl)ccc(Cl)c2F)c[nH]1 [Example 20, 4-(3,6-Dichloro-2-fluorobenzoyl)-N-(2-morpholinopyrimidin-5-yl)-1H-pyrrole-2-carboxamide] | 1.5 |
| CC(=O)OC1CCN(c2ncc(NC(=O)c3cc(C(=O)c4c(F)cccc4Cl)c[nH]3)cn2)CC1 [Example 21, 1-(5-(4-(2-Chloro-6-fluorobenzoyl)-1H-pyrrole-2-carboxamido)pyrimidin-2-yl)piperidin-4-yl acetate] | 5.38 |
| CC(=O)OC1CCN(c2ncc(NC(=O)c3cc(C(=O)c4c(Cl)ccc(Cl)c4F)c[nH]3)cn2)CC1 [Example 22, 1-(5-(4-(3,6-Dichloro-2-fluorobenzoyl)-1H-pyrrole-2-carboxamido)pyrimidin-2-yl)piperidin-4-yl acetate] | 9.66 |
| CN1CCC(Nc2ncc(NC(=O)c3cc(C(=O)c4c(F)cccc4Cl)c[nH]3)cn2)CC1 [Example 23, 4-(2-Chloro-6-fluorobenzoyl)-N-(2-((1-methylpiperidin-4-yl)amino)pyrimidin-5-yl)-1H-pyrrole-2-carboxamide] | 0.093 |
| O=C(Nc1cnc(N2CCNCC2)nc1)c1cc(C(=O)c2c(F)cccc2Cl)c[nH]1 [Example 26, 4-(2-Chloro-6-fluorobenzoyl)-N-(2-(piperazin-1-yl)pyrimidin-5-yl)-1H-pyrrole-2-carboxamide] | 0.0888 |
| O=C(Nc1cnc(N2CCC(O)CC2)nc1)c1cc(C(=O)c2c(F)cccc2Cl)c[nH]1 [Example 28, 4-(2-Chloro-6-fluorobenzoyl)-N-(2-(4-hydroxypiperidin-1-yl)pyrimidin-5-yl)-1H-pyrrole-2-carboxamide] | 2.23 |

| SMILES | IC50 [µM] |
| --- | --- |
| O=C(Nc1cnc(N2CCC(O)CC2)nc1)c1cc(C(=O)c2c(Cl)ccc(Cl)c2F)c[nH]1 [Example 29, 4-(3,6-Dichloro-2-fluorobenzoyl)-N-(2-(4-hydroxypiperidin-1-yl)pyrimidin-5-yl)-1H-pyrrole-2-carboxamide] | 0.537 |
| CN1CCC(Nc2ccc(NC(=O)c3cc(C(=O)c4c(Cl)ccc(Cl)c4F)c[nH]3)cn2)CC1 [Example 32, 4-(3,6-Dichloro-2-fluorobenzoyl)-N-(6-((1-methylpiperidin-4-yl)amino)pyridin-3-yl)-1H-pyrrole-2-carboxamide] | 0.0238 |
| O=C(Nc1ccnc(Cl)c1)c1cc(C(=O)c2c(F)cccc2Cl)c[nH]1 [Example 34, 4-(2-Chloro-6-fluorobenzoyl)-N-(2-chloropyridin-4-yl)-1H-pyrrole-2-carboxamide] | 2.32 |
| O=C(Nc1ccnc(N2CCCC2)c1)c1cc(C(=O)c2c(F)cccc2Cl)c[nH]1 [Example 35, 4-(2-Chloro-6-fluorobenzoyl)-N-(2-(pyrrolidin-1-yl)pyridin-4-yl)-1H-pyrrole-2-carboxamide] | 0.523 |
| CN1CCN(c2cc(NC(=O)c3cc(C(=O)c4c(F)cccc4Cl)c[nH]3)ccn2)CC1 [Example 36, 4-(2-Chloro-6-fluorobenzoyl)-N-(2-(4-methylpiperazin-1-yl)pyridin-4-yl)-1H-pyrrole-2-carboxamide] | 0.137 |
| CN1CCN(c2cc(NC(=O)c3cc(C(=O)c4c(Cl)ccc(Cl)c4F)c[nH]3)ccn2)CC1 [Example 37, 4-(3,6-Dichloro-2-fluorobenzoyl)-N-(2-(4-methylpiperazin-1-yl)pyridin-4-yl)-1H-pyrrole-2-carboxamide] | 0.036 |
| O=C(Nc1ccnc(N2CCOCC2)c1)c1cc(C(=O)c2c(Cl)ccc(Cl)c2F)c[nH]1 [Example 38, 4-(3,6-Dichloro-2-fluorobenzoyl)-N-(2-morpholinopyridin-4-yl)-1H-pyrrole-2-carboxamide] | 0.343 |
| COc1cc(NC(=O)c2cc(C(=O)c3c(F)cccc3Cl)c[nH]2)ccn1 [Example 40, 4-(2-Chloro-6-fluorobenzoyl)-N-(2-methoxypyridin-4-yl)-1H-pyrrole-2-carboxamide] | 1.83 |
| O=C(Nc1cnn(C2CCN(CC(F)(F)F)CC2)c1)c1cc(C(=O)c2c(Cl)ccc(Cl)c2F)c[nH]1 [Example 42, 4-(3,6-Dichloro-2-fluorobenzoyl)-N-(1-(1-(2,2,2-trifluoroethyl)piperidin-4-yl)-1H-pyrazol-4-yl)-1H-pyrrole-2-carboxamide] | 3.55 |
| CCN(CC)CCn1cc(NC(=O)c2cc(C(=O)c3c(Cl)ccc(Cl)c3F)c[nH]2)cn1 [Example 43, 4-(3,6-Dichloro-2-fluorobenzoyl)-N-(1-(2-(diethylamino)ethyl)-1H-pyrazol-4-yl)-1H-pyrrole-2-carboxamide] | 0.207 |
| CCn1cc(NC(=O)c2cc(C(=O)c3c(Cl)ccc(Cl)c3F)c[nH]2)cn1 [Example 46, 4-(3,6-Dichloro-2-fluorobenzoyl)-N-(1-ethyl-1H-pyrazol-4-yl)-1H-pyrrole-2-carboxamide] | 0.0665 |
| COCCn1cc(NC(=O)c2cc(C(=O)c3c(Cl)ccc(Cl)c3F)c[nH]2)cn1 [Example 47, 4-(3,6-Dichloro-2-fluorobenzoyl)-N-(1-(2-methoxyethyl)-1H-pyrazol-4-yl)-1H-pyrrole-2-carboxamide] | 0.0752 |
| O=C(Nc1cnn(Cc2ccccn2)c1)c1cc(C(=O)c2c(Cl)ccc(Cl)c2F)c[nH]1 [Example 48, 4-(3,6-Dichloro-2-fluorobenzoyl)-N-(1-(pyridin-2-ylmethyl)-1H-pyrazol-4-yl)-1H-pyrrole-2-carboxamide] | 0.0807 |
| O=C(Nc1cnn(Cc2cccnc2)c1)c1cc(C(=O)c2c(Cl)ccc(Cl)c2F)c[nH]1 [Example 49, 4-(3,6-Dichloro-2-fluorobenzoyl)-N-(1-(pyridin-3-ylmethyl)-1H-pyrazol-4-yl)-1H-pyrrole-2-carboxamide] | 0.0202 |
| O=C(Nc1cnn(Cc2ccncc2)c1)c1cc(C(=O)c2c(Cl)ccc(Cl)c2F)c[nH]1 [Example 50, 4-(3,6-Dichloro-2-fluorobenzoyl)-N-(1-(pyridin-4-ylmethyl)-1H-pyrazol-4-yl)-1H-pyrrole-2-carboxamide] | 0.021 |
| Cn1ccnc1Cn1cc(NC(=O)c2cc(C(=O)c3c(Cl)ccc(Cl)c3F)c[nH]2)cn1 [Example 51, 4-(3,6-Dichloro-2-fluorobenzoyl)-N-(1-((1-methyl-1H-imidazol-2-yl)methyl)-1H-pyrazol-4-yl)-1H-pyrrole-2-carboxamide] | 0.0176 |
